{
  "source": "patent US12298308B2",
  "about": "“Neoadjuvant chemotherapy induces breast cancer metastasis through a TMEM-mediated mechanism” (Albert Einstein College of Medicine, priority 2017, dated 2025)",
  "key": {"TMEM [1]": {"test_system": "TMEM", "experiment": "TMEM score by triple-stain immunohistochemistry in mouse breast tumors", "type": "in vivo", "from_the_text": "This hypothesis was investigated in the following breast carcinoma models: (i) transgenic MMTV-PyMT mice bearing spontaneous breast tumors, (ii) FVB mice transplanted orthotopically with tumors from MMTV-PyMT donors, and (iii) two patient-derived xenografts (PDX), HT17 and HT33, developed previously in our laboratory (31). […] Treatment of all groups began at the early carcinoma stage (tumor size of ˜0.3 cm) when there is minimal or absent necrosis. It was decided to work with the early-stage PyMT mouse mammary carcinoma model because it more accurately reflects clinically relevant scenarios where most women present with small tumors of <2 cm (32).\n(§1) Drug Administration. The following drugs were administered in mice: Paclitaxel was given at 10 mg/Kg i.v every 5 days for 2 weeks; Doxorubicin was given at 5 mg/Kg i.v. every 5 days for 2 weeks; Cyclophosphamide was given at 120 mg/Kg i.p. only once; Rebastinib was given at 10 mg/Kg per os, every 3-4 days for 4 weeks.\nAnimals and Animal Procedures. MMTV-PyMT mice were bred in-house at the Albert Einstein College of Medicine (AECOM). Generation of MMTV-PyMT Mena^−/− has been described previously (28). CFP- or Dendra2-labeled mammary carcinoma cells were generated on the FVB background by co-injection of Tg(MMTV-iCRE)1jwp together with Tg(PCAG-loxp-CATstop-loxp-CFP) or Tg(loxP-stop-loxP-PDendra2)jwp plasmids, respectively, by conventional methods in the Albert Einstein Transgenic Mouse Facility. All syngeneic transplantation models were generated through orthotopic transplantation of 1 mm×1 mm tumor chunks, using tumors of 1 cm-diameter from 12-16-week old MMTV-PyMT mena−/− or mena+/+ donor mice into 5-6 week-old FVB recipients. Tumor chunks were implanted on the fourth mammary pad on the left side. The generation of the ER^− HT17 and ER^+ HT33 patient-derived xenografts has been described previously (31). Animal handling and associated procedures were approved by the Institutional Animal Care and Use Committee (IACUC). Additional information is detailed in Supplementary Methods.\nHistology and TMEM Immunohistochemistry. Breast tumors and lungs were isolated, rinsed in PBS, fixed in 10% neutral buffered formalin for 48 hours, dehydrated and embedded in paraffin. Sections (5 μm) were stained with H & E or TMEM triple-stain immunohistochemistry, as previously described (3)."}, "TMEM [2]": {"test_system": "TMEM", "experiment": "Intravital imaging of TMEM-dependent vascular permeability (bursting)", "type": "in vivo, mouse", "from_the_text": "Paclitaxel Induces TMEM-Dependent Vascular Permeability in Breast Tumors—Given that chemotherapy treatment may affect blood vessel dynamics by inducing angiogenesis (9, 11-13, 35-37), intravital imaging (IVI) (FIG. 2A) was used to investigate whether neoadjuvant paclitaxel induces TMEM-dependent (localized) or TMEM-independent (more universal) blood vessel leakage. […] As also reported previously (1), we never observed any bursting incidents without juxtaposition to a clearly defined TMEM site. Bursting was documented by the accumulation of Dextran-TMR signal over time around an active TMEM site, and no such accumulation was observed away from TMEM (FIGS. 2B-C). The entire time-lapse of these was recorded in videos, respectively. The intensity values from all TMEM-mediated bursting incidents observed in paclitaxel-treated mice were averaged and plotted over the entire time of bursting activity (FIG. 2D), which confirmed the transient nature of paclitaxel-induced TMEM-dependent vascular permeability.\nas §1\nIntravital Imaging. Intravital imaging was performed using a custom-built two-laser multiphoton microscope, as previously described (57). Mice were anesthetized using 0.75-2.5% isofluorane, depilated. A skin flap procedure, previously developed (58), was performed by exposing the 4th or 5th mammary fat pad. Given the early stage of carcinoma and small tumor size, this necessitated the development of a custom fixturing technique where the exposed tissue was stabilized by affixing the edge of a 10-mm window fitted with an 8-mm clear aperture respectively with cyanoacrylate. The mouse was then placed on a fixturing plate, fitted to the respective window, on the microscope xy stage and imaging was performed in the center of the window away from the glue. The animal was placed in a heated chamber, AirTherm ATX forced air heater (WPI Inc.), maintained at physiologic temperature during the course of imaging, and supplemented with 50-100 uL of PBS per hour via the tail vein catheter. As previously described (1), three milligrams of 155-kDa TMR-dextran (Sigma) were administered via the catheter to visualize the vasculature. All images were reconstructed and analyzed in ImageJ (59), as described in Supplementary Methods."}, "Mena^INV": {"test_system": "Mena^INV", "experiment": "Mena^INV protein expression by immunofluorescence in mouse tumors", "type": "in vivo", "conditions": "PyMT-spontaneous and HT17-xenograft models; p<0.0001", "from_the_text": "To test this hypothesis, qRT-PCR analysis was first performed for total Mena (panMena), Mena11a and Mena^INV on formalin-fixed paraffin-embedded (FFPE) tumors from all mouse models. […] As shown in the specific Mena^INV IF, the pattern of Mena^INV expression in PyMT mice was heterogeneous (FIG. 4F), consistent with previous observations (40). […] In addition, there was an inverse correlation for the anti-metastatic Mena11a (p<0.01, […]).\nImmunofluorescence. Slides were deparaffinized by melting at 60° C. in an oven equipped with a fan for 20 minutes, followed by 2× xylene treatment for 20 minutes. Slides were rehydrated and antigen retrieval was done in 1 mM EDTA (pH 8.0) or 1× citrate buffer (pH 6.0) (Diagnostic BioSystems) at 97° C. for 20 minutes in a conventional steamer. Endogenous peroxidase was blocked by using 0.3% hydrogen peroxide in water, followed by incubation of slides in a blocking buffer solution (10% FBS, 1% BSA, 0.0025% fish skin gelatin in 0.05% PBST) for 60 minutes at room temperature. […]"}},
  "data": [
    {"compound": "CC(=O)O[C@H]1C(=O)[C@@]2(C)[C@H]([C@H](OC(=O)c3ccccc3)[C@]3(O)C[C@H](OC(=O)[C@H](O)[C@@H](NC(=O)c4ccccc4)c4ccccc4)C(C)=C1C3(C)C)[C@]1(OC(C)=O)CO[C@@H]1C[C@@H]2O", "note": "[paclitaxel]", "values": [
      {"measurement": "TMEM score, fold higher compared to non-treated controls", "setting": "TMEM [1]; all experimental models tested, 10 mg/Kg every five days, three times, p<0.001", "result": "2- to 3 fold"},
      {"measurement": "overall TMEM score (TMEM assembly)", "setting": "TMEM [1]; single agent vs vehicle, PyMT-transplantation and HT17 xenograft", "result": "significant increases"},
      {"measurement": "generalized blood vessel leakage of 155-KDa dextran into the extravascular space", "setting": "TMEM [2]; intravital imaging, paclitaxel-treated mice", "result": "did not demonstrate generalized blood vessel leakage"},
      {"measurement": "frequency of bursting", "setting": "TMEM [2]; vs vehicle control", "result": "increased"},
      {"measurement": "incidence of bursting (at least 1 bursting event in a ~4.5-hour imaging session)", "setting": "TMEM [2]; vs vehicle control", "result": "increased"},
      {"measurement": "Mena^INV expression at the protein level", "setting": "Mena^INV", "result": "increased expression"}
    ]}
  ]
}
